Measurements: paper PMC10291556 (Journal of Medicinal Chemistry, 2023)
Like-named read-outs stand apart in the source and are kept apart here.

Columns and labels:
[1] = MTT assay in non-cancerous fibroblasts, 72 h; type: cell-based; details: MRC-5 cells (non-cancerous fibroblasts), non-cancerous human fibroblasts, 72 h incubation, mean ± SD
Procedure: (§1) Cells were treated with the tested compounds in a final volume of 200 μL/well. […] Calbiochem, Darmstadt, Germany) was added, and the cells were incubated for an additional 2–4 h. The medium was removed, and the insoluble formazan product was dissolved in 100 μL/well DMSO. […] The read values were converted to the percentage of control. […] All experiments were made in triplicate.

[2] = tested on: HeLa cells; experiment: Calreticulin exposure (flow cytometry); type: cell-based, human; details: 3× IC50, 16–18 h, DAPI-negative cells
Procedure: Following the treatment, the cells were harvested (trypsin), washed with FACS buffer (PBS, BSA 1%, and FBS 2%), and incubated with Alexa Fluor 488 Anti-Calreticulin antibody for 40 min at 4 °C. The buffer was removed (CFG, 300 g, 3 min) and replaced with FACS buffer containing DAPI (1 μg mL^–1, 20 min), and the cells were analyzed with flow cytometry (BD FACS Verse) and FCS Express 6 (DeNovo Software, Glendale, CA). Calreticulin fluorescence histograms were analyzed in the DAPI-negative (intact membrane) cell population.

[3] = tested on: HeLa cells; experiment: HMGB1 release (ELISA); type: cell-based, human; details: 1×, 2×, 3× IC50, 20 h
Procedure: (B) Extracellular level of HMGB1. […] The data in panels A, B, and C are shown as a mean of 4–5 measurements ± SD. Statistical significance from untreated control was determined with the Student t-test (*p ≤ 0.05, **p ≤ 0.01, and ^#p ≤ 0.001).
HeLa cells were seeded in 24-well plates at a density of 10^4 cells/well and grown overnight. The medium was removed, and a fresh medium (DMEM, 1% BSA, no FBS) containing indicated concentrations of tested complexes was added (300 μL). Following a 20 h treatment, medium samples were withdrawn, and the HMGB1 content was determined using an HMGB1 ELISA Kit (IBL international) following the instructions for use. Cell counts in corresponding wells were determined using Automated Cell Counter (Bio-Rad). HMGB1 concentrations were normalized to cell counts and to the value of untreated control. The experiment was performed twice with duplicate readings.

[4] = tested on: HeLa cells; experiment: Mitochondrial membrane potential (TMRE, flow cytometry); type: cell-based, human; details: 10× IC50, 1 h, vs untreated control
Procedure: Figure 4 Changes in the mitochondrial membrane potential Δψm in HeLa cells. The cells were treated with Pt compounds at the concentrations corresponding to 10× IC50 for 1 h and subsequently stained with TMRE. The fluorescence was measured by flow cytometry. Data represents mean ± SD from three independent experiments, *p < 0.01.
HeLa cells were seeded (6-well plates, 3 × 10^5 cells/well), grown overnight, and then treated with the tested compounds for 1 h. The medium was removed, and a fresh medium containing TMRE (Thermo Fisher Scientific) at a final concentration of […] in 500 μL was added. The cells were incubated for 30 min at 37 °C and then harvested using trypsin. TMRE fluorescence was measured with a fluorescence-activated cell sorting (FACS) Verse flow cytometer (Becton Dickinson), and the data were analyzed using the ModFit LT 4.1 (Verity Software House) software. The experiment was performed in triplicate.

[5] = tested on: MDA-MB-231; experiment: MTT antiproliferative assay, 72 h; type: cell-based, human; details: read-out: IC50 MDA-MB-231
Procedure: (§2) Cells were treated with the tested compounds in a final volume of 200 μL/well. […] Calbiochem, Darmstadt, Germany) was added, and the cells were incubated for an additional 2–4 h. The medium was removed, and the insoluble formazan product was dissolved in 100 μL/well DMSO. The absorbance was read at 570 nm (vs 620 nm) using an Absorbance Reader (SUNRISE TECAN SCHOELLER). The read values were converted to the percentage of control. […] All experiments were made in triplicate.

[6] = tested on: A2780; experiment: MTT antiproliferative assay, 72 h; type: cell-based, human; details: read-out: IC50 A2780
Procedure: as §2

[7] = tested on: HeLa; experiment: MTT antiproliferative assay, 72 h; type: cell-based, human
Procedure: as §2

[8] = tested on: MCF-7; experiment: MTT antiproliferative assay, 72 h; type: cell-based, human; details: read-out: IC50 MCF-7
Procedure: as §2

[9] = tested on: HCT-116; experiment: MTT antiproliferative assay, 72 h; type: cell-based, human; details: read-out: IC50 HCT-116
Procedure: as §2

[10] = tested on: A2780cisR; experiment: MTT antiproliferative assay, 72 h; type: cell-based, human; details: read-out: IC50 A2780cisR
Procedure: as §2

[11] = tested on: HeLa cells; experiment: ATP secretion; type: cell-based, human; details: 1× and 3× IC50, 24 h
Procedure: HeLa cells were seeded in 24-well plates at a density of 10^4 cells/well, grown overnight, and then treated with the tested complexes for 24 h. Aliquots of culture medium samples were withdrawn, centrifugated (500g, 3 min), and processed with ATP Bioluminescence Assay Kit CLS II, Roche. Briefly, 50 μL of cell-free medium samples were added to a 96-well flat white plate, and an equal volume of luciferase reagent was added. The luminescence was measured immediately on a plate reader (SPARK, Tecan). The blank (no ATP) was subtracted from the raw data. ATP concentrations were obtained from the standard curve and normalized to cell counts and control. The data are shown as MEAN of 4–5 independent measurements.

[12] = tested on: COX in HeLa cells; experiment: COX activity assay (kit) in treated cells; type: cell-based, human; details: 24 h, 1× IC50,72h, vs untreated control
Procedure: The results are expressed relative to the COX activity of untreated control.
HeLa cells were seeded in 6-well plates at a density of 10^5 cells/well and incubated overnight. The cells were treated with the tested compounds at concentrations corresponding to 1× IC50. Following a 24 h treatment, the cells were lyzed with radioimmunoprecipitation assay (RIPA) buffer supplemented with proteinase inhibitors on ice for 10 min. The extracts were cleared with centrifugation (12,000g/5 min), and protein content was determined using Bradford assay. COX activity was determined with a COX Activity Assay Kit (Abcam). 6 μg of protein was used in the reaction. The experiment was set up according to the manufacturer’s instructions. The fluorescence (Ex/Em 535/587 nm) was read in a kinetic mode, and the COX inhibition was expressed as a percentage of the activity of the untreated control.

[13] = tested on: MRC-5; experiment: MTT assay in non-cancerous fibroblasts, 72 h; type: cell-based; details: non-cancerous human fibroblasts, 72 h incubation, mean ± SD
Procedure: as §1

[14] = tested on: HeLa cells; experiment: Cellular accumulation of platinum (ICP-MS); type: cell-based, human
Procedure: Briefly, 3 × 10^6 cells were seeded in 100 mm culture dishes and grown overnight. The cells were exposed to the tested complexes at indicated concentrations for indicated periods. […] The pellets were digested using the microwave acid (HCl) digestion system (CEM Mars). The platinum quantity taken up by the cells was determined by inductively coupled plasma mass spectrometry (ICP–MS). All experiments were performed in triplicate.

[15] = tested on: DNA isolated from HeLa cells; experiment: Pt associated with DNA isolated from treated HeLa cells; type: cell-based, human; details: 1 µM compound, 6 h, mean ± SD
Description: page 16: Table S1: […] concentration of tested compounds for 6 ha. […] Figure S19: A. Representative histograms obtained by flow cytometric analysis of calreticulin exposure in HeLa cells treated with indicated compounds. B. An example of gating DAPI negative population. Only DAPI-negative cells were taken for the evaluation.

[16] = tested on: HeLa cells / Thp-1/PMA macrophages; experiment: Phagocytosis of treated HeLa cells by Thp-1/PMA macrophages; type: cell-based, human; details: HeLa treated 24 h at 1× or 3× IC50,72h, co-incubated 2.5 h with Thp-1/PMA macrophages
Procedure: Figure 8 Hallmarks of ICD. (A) Extracellular ATP levels in HeLa cell supernatants. […] (B) Extracellular level of HMGB1. […] (C) Calreticulin exposure to the cell surface. […] The surface calreticulin exposure was determined in 4′,6-diamidino-2-phenylindole dihydrochloride (DAPI)-negative cell population. Relative fluorescence intensity was calculated as the median fluorescence of the population of treated cells/median fluorescence of untreated control cells. The data in panels A, B, and C are shown as a mean of 4–5 measurements ± SD. Statistical significance from untreated control was determined with the Student t-test (*p ≤ 0.05, **p ≤ 0.01, and ^#p ≤ 0.001). (D) Quantitative evaluation of phagocytosis of HeLa cells treated with the investigated compounds by human Thp-1/PMA macrophages (analyzed by flow cytometry). […] Error bars are the SEMs calculated from three independent experiments. The stars denote a significant difference from untreated control (*p ≤ 0.05, **p ≤ 0.01) as calculated by the […] Student t-test. […]
Human monocytic leukemia cells Thp-1 (obtained from American Type Culture Collection, ATCC) were differentiated into macrophages with phorbol 12-myristate 13-acetate (PMA, 100 nM) for 24 h. […] Phagocytosis was evaluated using flow cytometry (BD FACSVerse), and data were analyzed with FCS Express 7 (DeNovo software; Glendale, CA). […]

[17] = tested on: peritoneal carcinomatosis; design: method as in PMID 20535526; details: BD-IX rats; cited from earlier work
[18] = tested on: oral cancer xenograft; design: method as in PMID 33305724; details: BALB/c nude mice; cited from earlier work
[19] = Partition coefficient, shake-flask method; type: physicochemical; details: octanol/water
Procedure: The “shake flask” method was used to measure the partition coefficients (P) of platinum compounds. The compounds were dissolved in octanol-saturated water (OSW) containing 200 mM NaCl. […] After careful separation of the layers with a fine-tip pipet, the Pt content in individual phases was determined by flameless atomic absorption spectrometry. The partition coefficients were calculated as the concentration ratio of the compound in the octanol layer to that in the aqueous layer, log P = log([Pt]WSO/[Pt]OSW).

[20] = tested on: tumor cells; details: cited from earlier work
[21] = MTT, 72 h incubation, mean ± SD

## O=C([O-])Cc1ccccc1Nc1c(Cl)cccc1Cl.[Na+] [DCF, sodium {2-[(2,6-dichlorophenyl)amino]phenyl}-acetate, reference compound]
[1]
  IC50 at 72 h: 445 ± 36 µM
[2]
  externalization of calreticulin: effective as well
[3]
  HMGB1 secretion: effective as well
[4]
  mitochondrial membrane potential Δψm (TMRE fluorescence): approximately the same effect
[5]; Homo sapiens, MDA-MB-231, 72 h
  IC50: 187 ± 15 µM
[6]; Homo sapiens, A2780, 72 h
  IC50: 238 ± 19 µM
[7]; Homo sapiens, HeLa, 72 h, read-out: IC50 HeLa
  IC50: 250 ± 22 µM
[7]; Homo sapiens, HeLa, read-out: HeLa (biological data CSV)
  IC50: 240 ± 15 µM
[8]; Homo sapiens, MCF7, 72 h
  IC50: 259 ± 17 µM
[9]; Homo sapiens, HCT-116, 72 h
  IC50: 211 ± 10 µM
[10]; Homo sapiens, A2780cisR, 72 h
  IC50: 138 ± 8 µM
[11]
  ATP secretion: effective as well
[12]
  inhibition of COX activity: Inhibition of COX activity was also observed

## Cc1c(C)c2cccnc2c2ncccc12.N[C@H]1CCCC[C@@H]1N.[Pt] [complex 1, [Pt(1S,2S-diaminocyclohexane)(5,6-dimethyl-1,10-phenanthroline)]^2+]
[13]
  IC50: 0.17 ± 0.04 µM
[14]; 0.1 μM complex, 24 h
  cellular uptake 0.1 μM/24 h: 4.4 ± 0.5 ng Pt/10^6 cells
[14]; 1 μM complex, 6 h
  cellular uptake 1 μM/6 h: 13 ± 3 ng Pt/10^6 cells
[14]; 10 μM complex, 6 h
  cellular uptake 10 μM/6 h: 72 ± 2 ng Pt/10^6 cells
[15]
  amount of Pt associated with DNA: 2.0 ± 0.2 pg Pt/µg DNA
[16]
  increase of tumor-cell phagocytosis: roughly as effective as its Pt(IV) analogues 2–4
[17]
  in vivo antitumor activity, peritoneal carcinomatosis: no antitumor activity
[18]
  in vivo anticancer effect, oral cancer xenograft: potent anticancer effect
[2]
  externalization of calreticulin: effective as well
[3]
  HMGB1 secretion: effective as well
[19]
  log P: –1.7 ± 0.2
[5]; [21]
  IC50: 0.24 ± 0.03 µM
[6]; [21]
  IC50: 0.19 ± 0.04 µM
[7]; MTT, 72 h incubation, mean ± SD, read-out: IC50 HeLa
  IC50: 0.37 ± 0.01 µM
[8]; [21]
  IC50: 0.7 ± 0.1 µM
[9]; [21]
  IC50: 0.08 ± 0.01 µM
[10]; [21]
  IC50: 0.06 ± 0.01 µM
[11]
  ATP secretion: effective as well

## O=C1[O][Pt]2([NH][C@@H]3CCCC[C@H]3[NH]2)[O]C1=O [oxaliplatin]
[20]
  tumor cell phagocytosis: does not promote tumor cell phagocytosis
